Read-outs that look alike come from different tables or passages of the source.
How the values were obtained:
CHO-K1 cells = experiment: SRB cell viability (cytotoxicity), CHO-K1; assay type: cell-based; settings: Cricetulus griseus, CHO-K1 nonmalignant cells, read-out: IC50 ± SEM CHO
Method: (§1) Human colon cancer cell lines (SW480 and SW620), together with nonmalignant cells (CHO-K1 and HaCaT) were used to study the biological activity. Cells were purchased from the European Collection of Authenticated Cell Cultures (ECACC, UK). Dulbecco’s Modified Eagle Medium (DMEM) containing heat-inactivated (56 °C) horse serum (10%), non-essential amino acids (1%) and antibiotics (penicillin/streptomycin, 1%) (Gibco Invitrogen, Carlsbad, CA, USA) was used to maintain the cells, reducing the horse serum to 3%, and, adding insulin ([…]), transferrin ([…]) and selenium (5 ng/mL) (ITS-defined medium; Gibco, Invitrogen, Carlsbad, CA, USA) for all the experiments.
(§2) The colorimetric test with Sulforhodamine B (SRB) was used to evaluate cell viability. Cell density was adjusted to seed 20.000 cells/well in 96-well tissue culture plates. Cells were first incubated for 24 h and then treated with the synthesized hybrids, the lead compounds (PIH and resveratrol), and the reference drug (5-FU) (concentrations between 0.01 and 200 µM), using DMSO (below 1%) as vehicle control. The optimum conditions were 37 °C and 5% CO2. After the end of each treatment, cold trichloroacetic acid (MERCK, 50% v/v) was added and preserved for one hour at 4 °C, to fix the cells. Then, cell proteins were stained with 0.4% (w/v) SRB (Sigma-Aldrich, St. Louis, MO, USA), and subsequently washed with acetic acid (1%) to remove unbound SRB. After air-drying, protein-bound SRB was solubilized in 10 mM Tris-base before reading the absorbance at 492 nm in a microplate reader (Mindray MR-96A). All experiments were performed at least three times.

SW620 cells = experiment: SRB cell viability (cytotoxicity), SW620; assay type: cell-based, human; settings: for IC50: Homo sapiens, SW-620, SRB, read-out: IC50 ± SEM SW620; for Selectivity Index SI3: CHO-K1/SW620 IC50 ratio; for Selectivity Index SI4: HaCaT/SW620 IC50 ratio
Method: as §1, §2

SW480 cells = experiment: SRB cell viability (cytotoxicity), SW480; assay type: cell-based, human; settings: for IC50: Homo sapiens, SW480, SRB, read-out: IC50 ± SEM SW480; for Selectivity Index SI1: CHO-K1/SW480 IC50 ratio; for Selectivity Index SI2: HaCaT/SW480 IC50 ratio
Method: as §1, §2

HaCaT cells = experiment: SRB cell viability (cytotoxicity), HaCaT; assay type: cell-based; settings: Homo sapiens, HaCaT nonmalignant cells, read-out: IC50 ± SEM HACAT
Method: as §1, §2

HCT 116 cell line = settings: read-out: IC50 antiproliferative activity; cited from earlier work
EC9706 cells = test system: EC9706 cells; design: method as in PMID 29475156; settings: EC9706 esophageal carcinoma cells; read-out: IC50 antiproliferative activity; cited from earlier work
EC109 cells = test system: EC109 cells; design: method as in PMID 29475156; settings: EC109 esophageal carcinoma cells; read-out: IC50 antiproliferative activity; cited from earlier work

Row | Compound | IC50 (CHO-K1 cells; 24 H) [µM] | IC50 (CHO-K1 cells; 48 H) [µM] | IC50 (SW620 cells; 24 H) [µM] | IC50 (SW620 cells; 48 H) [µM] | IC50 (SW480 cells; 24 H) [µM] | IC50 (SW480 cells; 48 H) [µM] | IC50 (HaCaT cells; 24 H) [µM] | IC50 (HaCaT cells; 48 H) [µM] | Selectivity Index SI3 (SW620 cells; 24 H) | Selectivity Index SI4 (SW620 cells; 24 H) | Selectivity Index SI3 (SW620 cells; 48 H) | Selectivity Index SI4 (SW620 cells; 48 H) | melting point [°C] | Selectivity Index SI1 (SW480 cells; 24 H) | Selectivity Index SI2 (SW480 cells; 24 H) | Selectivity Index SI1 (SW480 cells; 48 H) | Selectivity Index SI2 (SW480 cells; 48 H) | IC50 (HCT 116 cell line) [µM] | IC50 (EC9706 cells) [µM] | IC50 (EC109 cells) [µM]
1 | COc1cc(OC)cc(C(=O)N/N=C/c2c(O)cc(O)cc2/C=C/c2ccc(O)cc2)c1 [6h, N′-((E)-2,4-dihydroxy-6-((E)-4-hydroxystyryl)benzylidene)-3,5-dimethoxybenzohydrazide] | 22.8 ± 1.31 | 14 ± 1.2 | 126 ± 20.9 | 26 ± 3.2 | 29.1 ± 1.31 | 7.2 ± 2 | 43.2 ± 4.02 | 4.5 ± 0.6 |  |  |  |  |  |  |  |  |  |  |  | 
2 | COc1ccc(C(=O)N/N=C/c2c(O)cc(O)cc2/C=C/c2ccc(O)cc2)cc1 [6b, N′-((E)-2,4-dihydroxy-6-((E)-4-hydroxystyryl)benzylidene)-4-methoxybenzohydrazide] | 23.4 ± 1.83 | 14.4 ± 1.7 | 160 ± 9.4 | 37.6 ± 2.9 | 36.1 ± 1.97 | 11.3 ± 2.3 | 36.9 ± 3.53 | 13.9 ± 0.7 |  |  |  |  |  |  |  |  |  |  |  | 
3 | NC(=S)N/N=C/c1c(O)cc(O)cc1/C=C/c1ccc(O)cc1 [compound 8, 2-((E)-2,4-dihydroxy-6-((E)-4-hydroxystyryl)benzylidene)hydrazine-1-carbothioamide] | 41.9 ± 2.83 | 36.7 ± 3.8 | 102 ± 3.5 | 64.1 ± 2.9 | 41 ± 3.93 | 41.2 ± 2.3 | 60.1 ± 3.99 | 31.8 ± 1.4 | 0.41 | 0.59 | 0.57 | 0.50 | 242 to 244 | 1.02 | 1.47 | 0.89 | 0.77 |  |  | 
4 | O=C(N/N=C/c1ccccc1OCc1ccccc1)c1ccncc1 [C] |  |  |  |  |  |  |  |  |  |  |  |  |  |  |  |  |  | 3.1 |  | 
5 | COc1ccc(C(=O)N/N=C/c2c(O)cc(O)cc2/C=C/c2ccc(O)cc2)cc1OC [6g, N′-((E)-2,4-dihydroxy-6-((E)-4-hydroxystyryl)benzylidene)-3,4-dimethoxybenzohydrazide] | 33.2 ± 1.99 | 17.2 ± 2 | 191 ± 13 | 40.3 ± 2.7 | 37 ± 2.24 | 20.2 ± 2.7 | 63.7 ± 5.27 | 17.7 ± 0.5 |  |  |  |  |  |  |  |  |  |  |  | 
6 | O=C(N/N=C/c1c(O)cc(O)cc1/C=C/c1ccc(O)cc1)c1ccc(F)cc1 [6c, N′-((E)-2,4-dihydroxy-6-((E)-4-hydroxystyryl)benzylidene)-4-fluorobenzohydrazide] | 22.6 ± 2.38 | 12 ± 1.6 | 57.7 ± 3.6 | 12.5 ± 1 | 29.2 ± 3.55 | 10.8 ± 2 | 32.8 ± 1.33 | 14.6 ± 0.8 | 0.39 | 0.57 | 0.96 |  |  | 0.77 | 1.12 | 1.11 | 1.35 |  |  | 
7 | O=c1[nH]cc(F)c(=O)[nH]1 [5-FU, 5-fluorouracil, reference compound] |  |  |  |  |  |  | > 1000 |  | 0.59 |  | 0.96 | 0.66 |  | 0.35 |  | 0.99 | 0.68 | 5 |  | 
8 | COc1cccc(C(=O)N/N=C/c2c(O)cc(O)cc2/C=C/c2ccc(O)cc2)c1 [6a, N′-((E)-2,4-dihydroxy-6-((E)-4-hydroxystyryl)benzylidene)-3-methoxybenzohydrazide] | 28.4 ± 1.48 | 13 ± 1.3 | 172 ± 9 | 41.5 ± 1.2 | 33 ± 2.13 | 24.9 ± 2.8 | 47.5 ± 1.15 | 2.2 ± 0.2 | 0.16 | 0.28 | 0.31 | 0.05 | 248 to 250 | 0.86 | 1.44 | 0.52 | 0.09 |  |  | 
9 | O=C(N/N=C/c1c(O)ccc2ccccc12)c1ccncc1 [D] |  |  |  |  |  |  |  |  |  |  |  |  |  |  |  |  |  | 0.29 |  | 
10 | Cc1ncc(CO)c(/C=N/NC(=O)c2ccncc2)c1O [PIH, pyridoxal isonicotinoyl hydrazone, reference compound] | > 200 | 75.3 ± 6.4 | > 200 | 119 ± 7 | > 200 | 112 ± 5.9 | > 200 | 101 ± 10.8 | 1.53 | 1.19 | 0.63 | 0.85 |  | 1.10 | 0.86 | 0.67 | 0.90 |  |  | 
11 | COc1ccc(OC)c(C(=O)N/N=C/c2c(O)cc(O)cc2/C=C/c2ccc(O)cc2)c1 [6f, N′-((E)-2,4-dihydroxy-6-((E)-4-hydroxystyryl)benzylidene)-2,5-dimethoxybenzohydrazide] | 22.7 ± 2.25 | 15.9 ± 1.6 | > 200 | 99.4 ± 6.9 | 23.4 ± 1.31 | 12.2 ± 1.2 | 42.2 ± 5.9 | 14.9 ± 1.3 | 0.11 | 0.21 | 0.16 | 0.15 | 260 to 262 | 0.97 | 1.80 | 1.30 | 1.22 |  |  | 
12 | Oc1ccc(/C=C/c2cc(O)cc(O)c2)cc1 [RESV, resveratrol] |  | 64 ± 8.9 | > 200 |  |  |  | > 200 | 20.2 ± 2.7 | 0.22 | 0.42 | 0.45 | 0.14 |  | 0.77 | 1.49 | 0.52 | 0.16 |  |  | 
13 | COc1cccc(C(=O)N/N=C/c2c(O)cc(O)cc2/C=C/c2ccc(O)cc2)c1OC [6d, N′-((E)-2,4-dihydroxy-6-((E)-4-hydroxystyryl)benzylidene)-2,3-dimethoxybenzohydrazide] | 35.5 ± 2.36 | 22.4 ± 2.7 | 171 ± 8.7 | 49.9 ± 2.1 | 34.8 ± 3.31 | 20.5 ± 1.9 | 49.7 ± 1.96 | 2.95 ± 0.2 |  |  |  |  |  |  |  |  |  |  |  | 
14 | CCOc1cccc(/C=N/NC(=O)c2cccc(S(=O)(=O)N3CCOCC3)c2)c1O [I] |  |  |  |  |  |  |  |  |  |  |  |  |  |  |  |  |  |  | 1.09 ± 0.03 | 2.79 ± 0.45

Reference: article PMC9694494, “Resveratrol/Hydrazone Hybrids: Synthesis and Chemopreventive Activity against Colorectal Cancer Cells” (Pharmaceutics, 2022)
